# Assay results reported in patent US20100041089A1, “IMPROVED METHOD FOR DETECTING CHEMICAL […]” (priority 2006, published 2010).
# Test system: yeast genes (expressed mRNA)
# Assay: DNA chip measurement of expressed mRNA of yeast genes after culture with a toxic chemical substance
# Format: cell-based, Saccharomyces cerevisiae S288C
# Settings: for level of expressed mRNA in the presence of chemical substance / level in the absence of chemical substance: cultured two hours with the chemical substance; for The level of expressed mRNA in the presence of chemical substance/The level of expressed mRNA in the absence of chemical substance: cultured two hours with substance
# Experimental: Yeast (Saccharomyces cerevisiae S288C (a SUC2mal mel gap2 CUP1)) were cultured at 25° C. on YPD medium (yeast extract 1%, polypeptone 2%, glucose 2%). One of toxic chemical substances was added to the cell at logarithmic growth phase, and the cell was further cultured for two hours. Cell was cultured without any chemical substance in the same condition, and was used as a control. Concentrations of the chemical substances were defined to inhibit the growth of the yeast but not lead to death.
# After the completion of cultivation, the culture was centrifuged to collect the cells. To the cells, sodium acetate buffer (50 mM sodium acetate, 10 mM EDTA, 1% SDS) was added, and the mixture was shaken at 65° C. for five minutes, followed by returning to room temperature, and obtaining the supernatant, which procedure was repeated two times. To the supernatant, ½ amount of a solution of phenol/chloroform (1:1) was added, and the mixture was centrifuged to give a supernatant, an equal amount of chloroform was added, and the mixture was centrifuged to give a supernatant. To the supernatant, an equal amount of isopropanol containing 0.3 M sodium acetate was added, and the mixture was allowed to stand at room temperature for 30 minutes, after which the mixture was centrifuged to give sediment of the whole RNAs. Seventy % ethanol was added to the sediment, and the mixture was again centrifuged to give sediment, which was then dried and dissolved in water. mRNA was isolated from the whole RNAs as followings. In view of the fact that a poly A chain is attached to the 3′ terminus of mRNA, a polynucleotide having a poly T structure which was immobilized on the surface of latex beads was used to trap the mRNA, and then the mRNA was washed and eluted with spine column (Oligotex-dT30<Super>mRNA Purification Kit, Takara). Reverse transcription of the mRNA was conducted with a reverse transcriptase (Super Script II Reverse Transcriptase; catalogue No. 18064-014, GibcoBRL) using fluorescence-labeled nucleotides to give cDNAs that were introduced with Cy3-dUTP or Cy5-dUTP during the reverse transcription.
# The labeled cDNAs were dissolved in TE buffer (10 mM Tris-HCl/1 mM EDTA, pH 8.0), and the solution was dropped on the DNA chip containing the whole genes of yeast (DNA Chip Research Inc. Japan) so that the cDNAs were hybridized on the DNA chip at 65° C. for over 12 hours. The fluoresces intensity of the DNA chip was read with a scanner, and the ratio relative to the fluorescence intensity resulting from the absence of chemical substance was estimated as the following, which is shown in Tables 1 to 9.
# In the Tables, “Intensity” indicated in the rightmost column is a value of the level of expressed mRNA of each gene in control cells as divided by the average level of the expressions of the whole genes. A gene of which mRNA level is lower in control, and is higher in cases of addition of chemical substance, is especially useful in the detection of toxic substances.
# Here, when a ratio of an amount of mRNA expressed in the presence of the chemical substance to an amount of mRNA expressed in the absence of the chemical substance is two or more, then it is considered significant.
structure (smiles),measurement,setting,value
"[Cl][Cd][Cl] [(2), CdCl2]",level of expressed mRNA in the presence of chemical substance / level in the absence of chemical substance,yeast gene YNL058C,1.0
same,level of expressed mRNA in the presence of chemical substance / level in the absence of chemical substance,yeast gene YNL063W,1.9
same,The level of expressed mRNA in the presence of chemical substance/The level of expressed mRNA in the absence of chemical substance,yeast gene YNL074C,1.3
same,The level of expressed mRNA in the presence of chemical substance/The level of expressed mRNA in the absence of chemical substance,yeast gene YNL092W,1.4
same,The level of expressed mRNA in the presence of chemical substance/The level of expressed mRNA in the absence of chemical substance,yeast gene YNL115C,1.8
same,The level of expressed mRNA in the presence of chemical substance/The level of expressed mRNA in the absence of chemical substance,yeast gene YNL156C,1.2
same,level of expressed mRNA in the presence of chemical substance / level in the absence of chemical substance,yeast gene YNL176C,1.3
same,level of expressed mRNA in the presence of chemical substance / level in the absence of chemical substance,yeast gene YNL194C,0.7
same,level of expressed mRNA in the presence of chemical substance / level in the absence of chemical substance,yeast gene YNL200C,3.0
same,The level of expressed mRNA in the presence of chemical substance/The level of expressed mRNA in the absence of chemical substance,yeast gene YNL234W,1.1
same,level of expressed mRNA in the presence of chemical substance / level in the absence of chemical substance,yeast gene YNL253W,1.3
same,level of expressed mRNA in the presence of chemical substance / level in the absence of chemical substance,yeast gene YNL276C,13.1
same,The level of expressed mRNA in the presence of chemical substance/The level of expressed mRNA in the absence of chemical substance,yeast gene YNL281W,1.3
same,The level of expressed mRNA in the presence of chemical substance/The level of expressed mRNA in the absence of chemical substance,yeast gene YNL305C,2.2
same,level of expressed mRNA in the presence of chemical substance / level in the absence of chemical substance,yeast gene YNR051C,0.5
same,The level of expressed mRNA in the presence of chemical substance/The level of expressed mRNA in the absence of chemical substance,yeast gene YNR068C,1.5
same,level of expressed mRNA in the presence of chemical substance / level in the absence of chemical substance,yeast gene YOL026C,2.7
same,The level of expressed mRNA in the presence of chemical substance/The level of expressed mRNA in the absence of chemical substance,yeast gene YOL032W,0.8
same,The level of expressed mRNA in the presence of chemical substance/The level of expressed mRNA in the absence of chemical substance,yeast gene YOL036W,0.9
same,The level of expressed mRNA in the presence of chemical substance/The level of expressed mRNA in the absence of chemical substance,yeast gene YOL047C,1.1
same,The level of expressed mRNA in the presence of chemical substance/The level of expressed mRNA in the absence of chemical substance,yeast gene YOL071W,2.0
same,The level of expressed mRNA in the presence of chemical substance/The level of expressed mRNA in the absence of chemical substance,yeast gene YOL082W,1.6
same,The level of expressed mRNA in the presence of chemical substance/The level of expressed mRNA in the absence of chemical substance,yeast gene YOL083W,2.3
same,The level of expressed mRNA in the presence of chemical substance/The level of expressed mRNA in the absence of chemical substance,yeast gene YOL117W,1.1
same,The level of expressed mRNA in the presence of chemical substance/The level of expressed mRNA in the absence of chemical substance,yeast gene YOL131W,1.5
same,The level of expressed mRNA in the presence of chemical substance/The level of expressed mRNA in the absence of chemical substance,yeast gene YOL150C,3.7
same,The level of expressed mRNA in the presence of chemical substance/The level of expressed mRNA in the absence of chemical substance,yeast gene YOL162W,6.9
same,The level of expressed mRNA in the presence of chemical substance/The level of expressed mRNA in the absence of chemical substance,yeast gene YOR019W,1.2
same,level of expressed mRNA in the presence of chemical substance / level in the absence of chemical substance,yeast gene YOR022C,1.1
same,level of expressed mRNA in the presence of chemical substance / level in the absence of chemical substance,yeast gene YOR087W,1.0
same,level of expressed mRNA in the presence of chemical substance / level in the absence of chemical substance,yeast gene YOR138C,1.5
same,The level of expressed mRNA in the presence of chemical substance/The level of expressed mRNA in the absence of chemical substance,yeast gene YOR197W,1.0
same,level of expressed mRNA in the presence of chemical substance / level in the absence of chemical substance,yeast gene YOR253W,2.8
same,level of expressed mRNA in the presence of chemical substance / level in the absence of chemical substance,yeast gene YOR267C,0.7
same,level of expressed mRNA in the presence of chemical substance / level in the absence of chemical substance,yeast gene YOR325W,2.6
same,level of expressed mRNA in the presence of chemical substance / level in the absence of chemical substance,yeast gene YPL005W,1.0
same,The level of expressed mRNA in the presence of chemical substance/The level of expressed mRNA in the absence of chemical substance,yeast gene YPL087W,5.1
same,level of expressed mRNA in the presence of chemical substance / level in the absence of chemical substance,yeast gene YPL150W,0.9
same,level of expressed mRNA in the presence of chemical substance / level in the absence of chemical substance,yeast gene YPL152W,1.1
same,level of expressed mRNA in the presence of chemical substance / level in the absence of chemical substance,yeast gene YPL168W,1.5
same,level of expressed mRNA in the presence of chemical substance / level in the absence of chemical substance,yeast gene YPL180W,2.0
same,level of expressed mRNA in the presence of chemical substance / level in the absence of chemical substance,yeast gene YPL188W,1.2
same,The level of expressed mRNA in the presence of chemical substance/The level of expressed mRNA in the absence of chemical substance,yeast gene YPL196W,1.6
same,The level of expressed mRNA in the presence of chemical substance/The level of expressed mRNA in the absence of chemical substance,yeast gene YPL206C,2.9
same,level of expressed mRNA in the presence of chemical substance / level in the absence of chemical substance,yeast gene YPL221W,3.0
same,The level of expressed mRNA in the presence of chemical substance/The level of expressed mRNA in the absence of chemical substance,yeast gene YPL222W,3.5
same,level of expressed mRNA in the presence of chemical substance / level in the absence of chemical substance,yeast gene YPL225W,1.7
same,The level of expressed mRNA in the presence of chemical substance/The level of expressed mRNA in the absence of chemical substance,yeast gene YPR023C,1.4
same,level of expressed mRNA in the presence of chemical substance / level in the absence of chemical substance,yeast gene YPR049C,2.5
same,level of expressed mRNA in the presence of chemical substance / level in the absence of chemical substance,yeast gene YPR146C,1.6
same,level of expressed mRNA in the presence of chemical substance / level in the absence of chemical substance,yeast gene YPR148C,1.2
same,The level of expressed mRNA in the presence of chemical substance/The level of expressed mRNA in the absence of chemical substance,yeast gene YPR151C,2.0
same,level of expressed mRNA in the presence of chemical substance / level in the absence of chemical substance,yeast gene YPR172W,1.6
